We go through seven compounds from article PMC6535779, “A Specific, Glycomimetic Langerin Ligand for Human Langerhans Cell Targeting” (ACS Central Science, 2019).

The target of experiment [1] is T1, Langerin extracellular domain (ECD) (Homo sapiens, UniProt Q9UJ71).
T1 construct: the trimeric Langerin extracellular domain (ECD) was expressed insolubly in E; made in house
In words: 19F R2-filtered NMR reporter displacement assay with Langerin. To be noted: for Ki: 19F R2-filtered NMR, 0.1 mM reporter ligand 24, pH 7.8, 25 °C; for Relative potency, Langerin: calculated utilizing the KI value determined for GlcNAc. The experiment is classed as binding. On the procedure: Receptor Expression and Purification
General remarks. Codon-optimized genes for the expression of Langerin and DC-SIGN in E. coli were purchased from GenScript and Life Technologies, respectively. All growth media or chemicals used for receptor expression and purification were purchased from Carl Roth if not stated otherwise.
Langerin extracellular domain. Expression and purification were conducted as previously published14. Briefly, the trimeric Langerin extracellular domain (ECD) was expressed insolubly in E. coli BL21* (DE3) (Invitrogen). Following enzymatic cell lysis, inclusion bodies were harvested and subsequently solubilized. The sample was centrifuged and the Langerin ECD was refolded overnight via rapid dilution. Next, the sample was dialyzed overnight, centrifuged and purified via mannan-agarose affinity chromatography (Sigma Aldrich). For 19F R2-filtered NMR and lipid-enzyme-linked lectin assay (Lipid-ELLA) experiments, the buffer was exchanged to 25 mM Tris with 150 mM NaCl and 5 mM CaCl2 at pH 7.8 using 7 kDa size-exclusion desalting columns (Thermo Scientific). For […]
D2O, 150 mM NaCl and 5 mM CaCl2 at pH 7. The concentration of Langerin ECD was determined via UV spectroscopy (A280, 0.1% = 2.45). Purity and monodispersity of Langerin ECD samples were analyzed via SDS PAGE and DLS. […]
General remarks. 19F R2-filtered NMR experiments were conducted on a PremiumCompact 600 MHz spectrometer (Agilent). Spectra were processed in MestReNova and data analysis was performed with OriginPro 13, 15. Experiments with the Langerin ECD were performed at a receptor concentration of 50 μM in 25 mM Tris with 10% D2O, 150 mM NaCl and 5 mM CaCl2 at pH 7.8 and 25° C. […]
10% D2O, 150 mM NaCl and 5 mM CaCl2 at pH 7.0 and 25°C. TFA served as an internal reference at a concentration of 50 μM. Apparent relaxation rates R2,obs for the reporter ligand were determined using the CPMG pulse sequence as previously published3-5. […]
KI determination. KI values were determined as previously published for Langerin3. Briefly, titration experiments were conducted at a concentration of 0.1 mM of reporter ligand 24 at five competitor concentrations [I]T. Samples were prepared via serial dilution. For the acids GlcNS, GlcNAc-6-OS and GlcNS-6-OS the pH values were monitored and adjusted to 7.8 if necessary.
General remarks. 15N HSQC NMR experiments were conducted on an Ascend 700 MHz spectrometer (Bruker)16. Spectra were processed in NMRPipe17. Data analysis was performed using CCPN Analysis, MatLab and OriginPro15, 18-19. Experiments with the Langerin CRD were performed at a receptor concentration of 100 μM in 25 mM HEPES with 10% D 2O, 150 mM NaCl and 5 mM CaCl2 at pH 7.8 and 25° C. DSS-d6 served as an internal reference at a concentration of 100 μM. Spectra were referenced via the internal spectrometer reference. Spectra were acquired with 128 increments and 32 scans per increments for 150 μl samples in 3 mm sample tubes. The relaxation delay d1 was set to 1.4 s and the acquisition time tacq was set to 100 ms. The W5 Watergate pulse sequence was used for solvent suppression20. The used resonance assignment for the Langerin CRD has been published […]
KD determination. KD values were determined in titration experiments at six ligand concentrations [L]T. Samples were prepared via serial dilution. Chemical shift perturbations CSPs for Langerin CRD resonances in the fast or fast-to-intermediate exchange regime observed upon titration with ligand were calculated via Equation 121.

Experiment [2] concerns Langerin^+ THP-1 cells. In words: Colorimetric cytotoxicity assay, Langerin+ THP-1 cells. The format is cell-based, human. To be noted: doxorubicin encapsulated in liposomes or free, 48 h. On the procedure:
(§1) the PEG-DSPE was substituted with glycolipids 22 or 23 at varying ratios. PEG-DSPE (3.0 kDa, NOF Europe), 22 or 23 were dissolved in DMSO, added to a round bottom flask and lyophilized. Next, DSPC (NOF Europe) and cholesterol (Sigma Aldrich) were dissolved in chloroform, added to the test tube and the solvent was removed in vacuo. The residue was dissolved in PBS and the mixture was vortexed and sonicated repeatedly until a homogeneous suspension was obtained. Unilamellar liposomes were prepared using a pore extruder (Avanti Polar Lipids) with polycarbonate membranes of 800, 400, 200 and finally 100 nm pore size (Avanti Polar Lipids). […]
(§2) The Lipid-ELLA was conducted as previously published35. […] Binding of the Langerin ECD was detected via absorbance A450 measurements at 450 nm using a SpectraMax spectrometer (Molecular Devices) in three independent titrations.
(§3) CO2. […] After centrifugation at 400 g for 5 min the supernatant was analyzed in the TNF-α ELISA. […]
(§4) To assess the cytotoxicity of doxorubicin-containing liposomes with THP-1 cells, 50,000 cells per well were added to 96 well microtiter plates (Corning) and incubated in presence of liposomes at a given total lipid concentration [Lipid]T in a final volume of 100 μl for 48 h at 37°C and 5% CO2. Cell viability was analyzed using CellTiter 96 (Promega) by measuring formazan absorbance at 490 nm. […]

The subject of experiment [3] is Langerin^– THP-1 cells. Briefly: Colorimetric cytotoxicity assay, Langerin- THP-1 cells. The format is cell-based, human. To be noted: doxorubicin encapsulated in liposomes or free, 48 h. On the procedure: as §1, §2, §3, §4

T1 sequence (Q9UJ71 65-328 limits assumed): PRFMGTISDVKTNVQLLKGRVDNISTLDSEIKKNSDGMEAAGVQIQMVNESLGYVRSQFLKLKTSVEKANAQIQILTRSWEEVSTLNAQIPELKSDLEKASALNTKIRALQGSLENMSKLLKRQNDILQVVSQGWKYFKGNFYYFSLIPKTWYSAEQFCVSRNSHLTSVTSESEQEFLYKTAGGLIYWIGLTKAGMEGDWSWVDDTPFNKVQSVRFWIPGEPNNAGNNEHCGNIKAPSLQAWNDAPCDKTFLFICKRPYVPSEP

As usually defined, the Ki is a measure of affinity in units of concentration, obtained from inhibition or displacement. Low values mean higher affinity, high ones lower affinity. With `CC(=O)N[C@@H]1[C@@H](O)[C@H](O)[C@@H](CO)O[C@H]1O` [GlcNAc, N-acetyl glucosamine], in experiment [1], the inhibition constant Ki is 4.1 ± 0.7 mM and the “Relative potency, Langerin” value is given as 1.0.

Regarding `CC(=O)N[C@H]1C(O)O[C@H](COS(=O)(=O)O)[C@@H](O)[C@@H]1O` (stereo partly shown) [GlcNAc-6-OS, N-acetyl glucosamine-6-sulfate], in experiment [1], the Ki came out at 0.6 ± 0.1 mM and the “Relative potency, Langerin” value is recorded as 6.8.

Take `O=S(=O)(O)N[C@H]1C(O)O[C@H](CO)[C@@H](O)[C@@H]1O` (stereo partly shown) [GlcNS, glucosamine-2-sulfate]: in experiment [1], the Ki is 1.4 ± 0.2 mM and the “Relative potency, Langerin” value is on record as 2.9. In the case of `O=S(=O)(O)N[C@H]1C(O)O[C@H](COS(=O)(=O)O)[C@@H](O)[C@@H]1O` (stereo partly shown) [GlcNS-6-OS, glucosamine-2-sulfate-6-sulfate], in experiment [1], the inhibitory constant (Ki) was found to be 0.28 ± 0.06 mM and the “Relative potency, Langerin” value is 14. In the same order, the values of `OC[C@H]1OC(O)[C@H](O)[C@@H](O)[C@@H]1O` (stereo partly shown) [Glc] are 21 ± 4 mM and 0.20. With `Cc1ccc(S(=O)(=O)N[C@H]2[C@H](OCCN)O[C@H](CO)[C@@H](O)[C@@H]2O)cc1` [compound 15], the “affinity increase over Man-based reference molecule 21” value in experiment [1] (from KI values, Langerin, b47 words it as over natural glycans) is reported as 42 fold. With `COc1cccc2c1C(=O)c1c(O)c3c(c(O)c1C2=O)C[C@@](O)(C(=O)CO)C[C@@H]3O[C@H]1C[C@H](N)[C@H](O)[C@H](C)O1` [free doxorubicin, doxorubicin], in experiment [2], the “killing of Langerin^+ THP-1 cells” value is “killed both Langerin^+ and Langerin^– cells”. In experiment [3], the “killing of Langerin^– THP-1 cells” value was “killed both Langerin^+ and Langerin^– cells”.
